The results in this text go back to US11578074B2, “Nitrogenous heterocyclic compound, preparation method, intermediate, composition, and application” (SHANGHAI PHARMACEUTICALS HOLDING CO., LTD., priority 2017, dated 2023).

The subject of series [1] is N87 (human gastric cancer cell NCI-N87). Kind of series: In vitro proliferation inhibition assay of cell lines (CellTiter-Glo), N87. Format: cell-based. Conditions: N87 cells, 72 hours. The method in brief: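 Cells seeded overnight (BT-474 8.8×10^4 cells/mL, N87 6.6×10^4 cells/mL), then exposed to 9 compound concentrations in duplicate for 72 hours at 37° C, 5% CO2. Viability read by CellTiter-Glo luminescence.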
For orientation: ATP-based viability assays read luminescence as a measure of living cells.

A further series concerns the target T1, CYP2C19 (Homo sapiens, UniProt P33261).
T1 construct: A system of 100 μL human liver microsomes; from tissue; host or cells: human liver microsomes
Kind of series: Direct inhibition (DI) of CYP2C19 in human liver microsomes. Format: in vitro ADME. Conditions: probe Mephenytoin, human liver microsomes 0.2 mg/mL, 10 μM compound, read-out: Direct inhibition (DI) 2C19 (Mephenytoin). The procedure, abridged:
(§1)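 Pooled human liver microsomes (0.2 mg/mL) with 1 mM NADPH and 10 μM test compound were incubated for 20 min with a mixed probe-substrate cocktail (midazolam 10 μM, testosterone 100 μM, dextromethorphan 10 μM, diclofenac 20 μM, phenacetin 100 μM, mephenytoin 100 μM). Relative enzyme activity came from metabolite formation versus DMSO control.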
A general note: Liver microsomes are vesicles of endoplasmic reticulum, rich in cytochrome P450 enzymes.

Another series concerns the target T2, CYP2D6 (Homo sapiens, UniProt P10635).
T2 construct: A system of 100 μL human liver microsomes; from tissue; host or cells: human liver microsomes
Kind of series: Direct inhibition (DI) of CYP2D6 in human liver microsomes. Format: in vitro ADME. Conditions: probe Dextromethorphan, human liver microsomes 0.2 mg/mL, 10 μM compound, read-out: Direct inhibition (DI) 2D6 (Dextromethorphan). The procedure, abridged:
as §1

The target in a further series is T3, ErbB2 kinase (Homo sapiens, UniProt P04626).
T3 construct: The final concentration of ErbB2 kinase was 0.06 ng/μL
Kind of series: EGFR/ErbB2 enzymatic experiment (HTRF kinEASE-TK), ErbB2. Format: biochemical. Particulars: ErbB2 kinase 0.06 ng/μL, ATP 4 μM; read-out: Kinase IC50 (nM) in vitro ErbB2.

In another series the target is T4, CYP3A4 (Homo sapiens, UniProt P08684).
T4 construct: A system of 100 μL human liver microsomes; from tissue; host or cells: human liver microsomes
Kind of series: Direct inhibition (DI) of CYP3A4 in human liver microsomes. Format: in vitro ADME. Conditions: human liver microsomes 0.2 mg/mL, 10 μM compound. The procedure, abridged:
as §1

The target in another series is T5, CYP2C9 (Homo sapiens, UniProt P11712).
T5 construct: A system of 100 μL human liver microsomes; from tissue; host or cells: human liver microsomes
Kind of series: Direct inhibition (DI) of CYP2C9 in human liver microsomes. Type of series: in vitro ADME. Particulars: probe Diclofenac, human liver microsomes 0.2 mg/mL, 10 μM compound, read-out: Direct inhibition (DI) 2C9 (Diclofenac). The procedure, abridged: as §1

A further series concerns the target T6, CYP1A2 (Homo sapiens, UniProt P05177).
T6 construct: A system of 100 μL human liver microsomes; from tissue; host or cells: human liver microsomes
T6 sequence (P05177 1-516): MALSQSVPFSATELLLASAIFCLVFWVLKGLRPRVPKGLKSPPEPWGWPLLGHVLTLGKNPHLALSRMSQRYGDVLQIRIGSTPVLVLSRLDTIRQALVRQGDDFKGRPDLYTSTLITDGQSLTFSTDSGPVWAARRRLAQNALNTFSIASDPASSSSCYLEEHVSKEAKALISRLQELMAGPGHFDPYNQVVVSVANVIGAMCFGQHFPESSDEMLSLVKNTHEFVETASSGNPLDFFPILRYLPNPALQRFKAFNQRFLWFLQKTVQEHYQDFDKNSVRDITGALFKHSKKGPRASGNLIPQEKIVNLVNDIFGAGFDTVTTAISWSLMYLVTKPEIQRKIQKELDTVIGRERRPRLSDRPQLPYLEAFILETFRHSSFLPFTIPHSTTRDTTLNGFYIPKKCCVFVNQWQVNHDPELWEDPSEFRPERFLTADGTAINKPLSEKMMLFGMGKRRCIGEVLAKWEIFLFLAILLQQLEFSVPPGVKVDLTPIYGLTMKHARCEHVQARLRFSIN
Kind of series: Direct inhibition (DI) of CYP1A2 in human liver microsomes. Type of series: in vitro ADME. Particulars: probe Phenacetin, human liver microsomes 0.2 mg/mL, 10 μM compound, read-out: Direct inhibition (DI) 1A2 (Phenacetin). The method in brief: as §1

The mark [2] stands for this setting: probe Midazolam, read-out: Direct inhibition (DI) 3A4 (Midazolam).
The mark [3] stands for this setting: probe Testosterone, read-out: Direct inhibition (DI) 3A4 (testosterone).

Molecules are shown by their SMILES. Read-outs that look alike come from different tables or passages of the source. A value given as a limit tells only on which side of the number the result lay.

T4 sequence (P08684 whole entry): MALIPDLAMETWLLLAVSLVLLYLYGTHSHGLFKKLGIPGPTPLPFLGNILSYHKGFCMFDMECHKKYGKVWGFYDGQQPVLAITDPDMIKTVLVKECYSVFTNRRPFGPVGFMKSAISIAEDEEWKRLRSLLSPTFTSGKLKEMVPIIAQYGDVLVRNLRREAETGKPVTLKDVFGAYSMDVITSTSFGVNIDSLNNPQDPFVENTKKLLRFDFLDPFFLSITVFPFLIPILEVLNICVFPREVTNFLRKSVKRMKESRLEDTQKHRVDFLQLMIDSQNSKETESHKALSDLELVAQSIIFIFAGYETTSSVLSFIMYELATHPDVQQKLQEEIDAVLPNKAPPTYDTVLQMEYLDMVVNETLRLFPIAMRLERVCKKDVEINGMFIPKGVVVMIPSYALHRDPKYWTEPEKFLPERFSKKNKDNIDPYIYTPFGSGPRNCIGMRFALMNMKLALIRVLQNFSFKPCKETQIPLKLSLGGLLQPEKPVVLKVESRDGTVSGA
T2 sequence (P10635 whole entry): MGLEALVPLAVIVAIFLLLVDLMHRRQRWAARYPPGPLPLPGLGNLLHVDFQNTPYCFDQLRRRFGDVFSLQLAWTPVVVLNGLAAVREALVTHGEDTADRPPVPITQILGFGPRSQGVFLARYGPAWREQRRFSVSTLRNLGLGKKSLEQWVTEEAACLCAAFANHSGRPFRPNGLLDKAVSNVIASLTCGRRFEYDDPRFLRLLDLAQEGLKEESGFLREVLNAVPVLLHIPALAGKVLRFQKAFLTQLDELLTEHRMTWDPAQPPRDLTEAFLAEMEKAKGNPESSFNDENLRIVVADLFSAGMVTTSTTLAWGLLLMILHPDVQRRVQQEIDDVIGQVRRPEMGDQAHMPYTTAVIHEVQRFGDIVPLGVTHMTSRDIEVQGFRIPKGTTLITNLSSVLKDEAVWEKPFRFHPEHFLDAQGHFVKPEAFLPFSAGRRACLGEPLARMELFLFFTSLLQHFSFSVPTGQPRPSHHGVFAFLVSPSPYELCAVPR
T5 sequence (P11712 whole entry): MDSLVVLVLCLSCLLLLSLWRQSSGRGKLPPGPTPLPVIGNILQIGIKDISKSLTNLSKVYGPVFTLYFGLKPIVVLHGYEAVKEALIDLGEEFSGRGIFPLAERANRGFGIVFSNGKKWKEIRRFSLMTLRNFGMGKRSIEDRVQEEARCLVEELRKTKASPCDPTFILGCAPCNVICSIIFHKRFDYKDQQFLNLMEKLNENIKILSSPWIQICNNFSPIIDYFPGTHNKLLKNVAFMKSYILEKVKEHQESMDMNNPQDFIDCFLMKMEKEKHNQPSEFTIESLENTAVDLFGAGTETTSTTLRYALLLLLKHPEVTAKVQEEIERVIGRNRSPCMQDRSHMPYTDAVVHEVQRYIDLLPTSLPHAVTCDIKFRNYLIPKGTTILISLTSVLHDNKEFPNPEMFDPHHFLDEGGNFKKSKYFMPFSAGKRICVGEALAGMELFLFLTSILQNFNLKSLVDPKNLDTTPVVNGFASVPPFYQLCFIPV
T3 sequence (P04626 23-1255): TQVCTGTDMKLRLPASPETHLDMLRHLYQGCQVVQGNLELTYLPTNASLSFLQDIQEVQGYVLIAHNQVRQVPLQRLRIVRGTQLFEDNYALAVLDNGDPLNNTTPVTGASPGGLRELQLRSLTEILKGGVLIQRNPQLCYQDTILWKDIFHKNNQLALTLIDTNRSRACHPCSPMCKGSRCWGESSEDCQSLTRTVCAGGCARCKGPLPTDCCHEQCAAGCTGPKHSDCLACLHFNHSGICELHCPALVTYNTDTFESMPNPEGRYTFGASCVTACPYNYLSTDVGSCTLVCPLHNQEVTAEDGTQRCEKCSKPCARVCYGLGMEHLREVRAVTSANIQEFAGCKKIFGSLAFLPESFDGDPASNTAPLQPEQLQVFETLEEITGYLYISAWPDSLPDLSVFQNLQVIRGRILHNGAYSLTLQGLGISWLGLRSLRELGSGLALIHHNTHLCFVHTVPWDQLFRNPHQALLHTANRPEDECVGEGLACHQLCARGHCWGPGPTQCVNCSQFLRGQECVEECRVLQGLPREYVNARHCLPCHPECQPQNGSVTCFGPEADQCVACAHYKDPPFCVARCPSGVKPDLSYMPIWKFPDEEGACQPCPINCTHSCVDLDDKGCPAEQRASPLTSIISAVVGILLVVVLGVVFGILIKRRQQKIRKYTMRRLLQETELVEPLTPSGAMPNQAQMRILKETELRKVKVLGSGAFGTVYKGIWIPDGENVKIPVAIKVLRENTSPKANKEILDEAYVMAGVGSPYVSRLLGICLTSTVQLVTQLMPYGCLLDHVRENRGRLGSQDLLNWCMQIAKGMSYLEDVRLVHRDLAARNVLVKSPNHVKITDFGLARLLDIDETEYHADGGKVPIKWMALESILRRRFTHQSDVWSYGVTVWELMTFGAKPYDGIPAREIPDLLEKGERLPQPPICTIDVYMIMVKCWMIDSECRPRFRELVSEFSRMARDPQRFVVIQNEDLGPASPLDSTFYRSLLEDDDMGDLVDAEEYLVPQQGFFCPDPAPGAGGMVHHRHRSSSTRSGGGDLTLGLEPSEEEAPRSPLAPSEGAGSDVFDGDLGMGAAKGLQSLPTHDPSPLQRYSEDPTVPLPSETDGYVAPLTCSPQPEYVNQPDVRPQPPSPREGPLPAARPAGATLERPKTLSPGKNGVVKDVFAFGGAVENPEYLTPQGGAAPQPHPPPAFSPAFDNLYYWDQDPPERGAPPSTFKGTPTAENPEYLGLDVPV
T1 sequence (P33261 whole entry): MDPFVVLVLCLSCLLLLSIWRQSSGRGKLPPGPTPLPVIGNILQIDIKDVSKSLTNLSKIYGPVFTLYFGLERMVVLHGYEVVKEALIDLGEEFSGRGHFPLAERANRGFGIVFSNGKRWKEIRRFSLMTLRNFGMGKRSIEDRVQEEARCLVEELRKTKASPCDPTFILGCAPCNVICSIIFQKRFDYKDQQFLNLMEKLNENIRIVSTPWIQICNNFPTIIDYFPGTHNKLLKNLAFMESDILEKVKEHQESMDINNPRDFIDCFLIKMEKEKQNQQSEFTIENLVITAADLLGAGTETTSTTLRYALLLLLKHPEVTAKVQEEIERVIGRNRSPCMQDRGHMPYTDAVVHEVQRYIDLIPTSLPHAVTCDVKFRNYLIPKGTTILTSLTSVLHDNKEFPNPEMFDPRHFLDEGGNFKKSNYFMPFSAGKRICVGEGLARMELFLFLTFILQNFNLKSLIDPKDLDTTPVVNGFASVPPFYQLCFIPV

As a reminder, the IC50 is the concentration needed to halve the response being measured. The term inhibition denotes the percentage by which the read-out fell short of the control. Turning to `CCOc1cc2ncnc(Nc3ccc(Oc4ccn5ncnc5c4)c(C)c3)c2cc1NC(=O)/C=C/[C@H]1CCCN1C` [Final product of Embodiment 22, (R,E)-N-(4-((4-([1,2,4]triazolo[1,5-a]pyridin-7-yloxy)-3-methylphenyl)amino)-7-ethoxyquinazolin-6-yl)-3-(1-methylpyrrolidin-2-yl)acrylamide], the IC50 was 0.68 nM in series [1] and 0.37 nM on ErbB2 kinase. Moreover, the inhibition at 20 min, 10 µM at CYP2C19 was 37%; at CYP2D6 it was 48%; at CYP3A4 (setting [2]) it was 12%; on CYP3A4 (setting [3]), 32%; at CYP2C9, 10%; on CYP1A2 it was 14%.
Turning to `CCOc1cc2ncnc(Nc3ccc(Oc4ccn5ncnc5c4)c(C)c3)c2cc1NC(=O)/C(F)=C/[C@H]1CCCN1C` [Final product of Embodiment 45], the IC50 in series [1] amounted to 1.3 nM; at ErbB2 kinase, 1.8 nM. The inhibition at 20 min, 10 µM at CYP2C19 was 11%; on CYP2D6, 39%; on CYP3A4 (setting [2]), 6%; on CYP3A4 (setting [3]), 24%; on CYP2C9, < 0%; at CYP1A2, 8%.
